Assay results as given in patent US20150306110A1, “COMPOSITIONS AND METHODS FOR TREATMENT OF INFLAMMATION AND HYPERKERATOTIC LESIONS” (Novelix Pharmaceuticals, Inc., priority 2008, published 2015).

Columns and labels:
518A2 = test: Cell growth/survival, 518A2 melanoma cells; assay type: cell-based; conditions: Homo sapiens, TP53 mut.
Method: (§1) Melanoma cell lines used in this study were maintained in Dulbecco's modified Eagle medium (DMEM with 4500 mg/l glucose) supplemented with 10% FCS from Gibco BRL (Life Technologies, Berlin, Germany). The canine mastocytoma cell line C2 (DeVinney et al, Am. J. Respir. Cell Mol. Biol. 3:413-20, 1990) was used in this study, along with additional human cell lines: RD-ES and TC-71 (human Ewing's sarcoma), SAOS2 (human osteosarcoma), HT-1080 (human fibrosarcoma), Caco-2 (human colon adenocarcinoma), A549 (human lung adenocarcinoma), Hep-G2 and Hep-3B (human hepatocellular carcinoma), SK-N-DZ and SK-N-FI (human embryonal neuroblastoma), HTB9 (human bladder cancer), MDA-468 and MCF-7 (human breast cancer) and SW872 liposarcoma. All breast cancer cells were routinely cultured in DMEM/F-12 or in DMEM alone supplemented with 10% FCS at 37° C. in a humidified 5% CO2 atmosphere. RD-ES and TC-71 sarcoma cell lines were maintained in RPMI 1640 (Biochrom KG, Berlin, Germany) containing 10% FCS at 37° C. in a humidified 5% CO2 atmosphere. […]
(§2) Briefly, cells were maintained in standard medium, harvested, and plated at equal densities (750,000 cells in 5 cm tissue culture dishes). […] For the assessment of cell growth, the number of surviving cells was determined using an automated cell counter from Beckman Coulter GmbH (Krefeld, Germany). […]

Hep-3B = test: Cell growth/survival, Hep-3B hepatocellular carcinoma cells; assay type: cell-based; conditions: Homo sapiens, Hep3B, TP53 null
Method: as §1, §2

GOTO (autonomic ganglia) = test: Cell growth/survival, GOTO neuronal cancer cells; assay type: cell-based; conditions: Homo sapiens, TP53 neg.
HAT 1080 (fibrosarcoma) = test: Cell growth/survival, HAT 1080 fibrosarcoma cells; assay type: cell-based; conditions: Homo sapiens, TP53 mut.
Method: as §1, §2

Caco-2 = test: Cell growth/survival, Caco-2 colon adenocarcinoma cells; assay type: cell-based; conditions: Homo sapiens, TP53 neg.
Method: as §1, §2

Soft tissue sarcoma = test: Intra-tumoral NVX-207 in canine patient, soft tissue sarcoma; conditions: Patient #1, 11, F; 48 treatment cycles
pigs = conditions: pig, in vivo
[1] = system: hyperkeratotic palpable lesion with inflammatory components; test: Topical treatment of human hyperkeratotic lesions with inflammatory components; assay type: in vivo; conditions: 1% topical solution
Method: A 1% topical solution of NVX-207 (20% ethanol, 20% Tween® 80 and 80% water) was applied to human skin to treat a treatment resistant hyperkeratotic palpable lesion with inflammatory components. The NVX-207 was administered once a day on days 1, 2, 3, 10, 11, 12 and 13. Significant improvement (better than 80% reduction) was observed after one day, and additional improvement was observed after a total of six additional treatments applied within 14 days. […] A second identical lesion was treated with the same formulation twice a day for 2 days, and disappeared.

SK-N-DZ = test: Cell growth/survival, SK-N-DZ neuronal cancer cells; assay type: cell-based; conditions: Homo sapiens, TP53 mut.
Method: as §1, §2

In the case of `C=C(C)[C@@H]1CC[C@]2(C(=O)OCC(N)(CO)CO)CC[C@]3(C)[C@H](CC[C@@H]4[C@@]5(C)CC[C@H](OC(C)=O)C(C)(C)[C@@H]5CC[C@]43C)[C@@H]12` [NVX-207, 3-O-acetylbetulinic acid-2-amino-3-hydroxy-2-hydroxymethylpropyl ester], the IC50 (518A2) is reported as 2600 nM, the IC50 (Hep-3B) is reported as 3800 nM and the IC50 (GOTO (autonomic ganglia)) is reported as 2000 nM. For the same compound, the IC50 (HAT 1080 (fibrosarcoma)) was 5600 nM, the IC50 (Caco-2) was 2700 nM and the “Overall Survival” value (Soft tissue sarcoma) was 15 months. For the same compound, the “Blood chemistry and hematology (blood status, mineral homoeostasis, liver and kidney functions)” value (pigs) was “did not reflect any systemic NVX-207-induced impact”, the “Histopathological changes in skin biopsies” value (pigs) was “No treatment-related histopathological changes were observed” and the Macroscopic skin irritations (pigs; 2 weeks) was “No macroscopic NVX-207 related skin irritations were observed”. The “Deleterious (toxic) effects on the treated areas (inflammation, redness, swelling)” value [1] was “No deleterious (toxic) effects”, the “Improvement (reduction) of lesion” value ([1]; after one day) was > 80% and the Side effects ([1]; first lesion) was “No reddening, inflammation or any other side effects were observed”. It also gave an IC50 (SK-N-DZ) of 2700 nM.
